# According to patent US10370644B2, “Method for making human pluripotent suspension cultures and cells derived therefrom” (Janssen Biotech, Inc., priority 2012, dated 2019):
# B1: WNT-3A: WNT-3A (Catalog #1324-WN-002, R&D Systems) (protein, UniProt P56704 19-352, looked up)
# Protein Wnt-3a: SYPIWWSLAVGPQYSSLGSQPILCASIPGLVPKQLRFCRNYVEIMPSVAEGIKIGIQECQHQFRGRRWNCTTVHDSLAIFGPVLDKATRESAFVHAIASAGVAFAVTRSCAEGTAAICGCSSRHQGSPGKGWKWGGCSEDIEFGGMVSREFADARENRPDARSAMNRHNNEAGRQAIASHMHLKCKCHGLSGSCEVKTCWWSQPDFRAIGDFLKDKYDSASEMVVEKHRESRGWVETLRPRYTYFKVPTERDLVYYEASPNFCEPNPETGSFGTRDRTCNVSSHGIDGCDLLCCGRGHNARAERRREKCRCVFHWCCYVSCQECTRVYDVHTCK
# How the values were obtained:
# Type in all cases: cell-based
# [1] = tested on: Clusters from pluripotent human embryonic stem cell line H1 (NIH code: WA01); assay: EdU incorporation and cell cycle stage (G0/G1, S, G2/M) by flow cytometry during definitive endoderm differentiation; settings: for cells in G0/G1 of the cell cycle: 48 hours after initiation of differentiation; for percentage of cells with EdU incorporation (mean of GDF8, WNT-3A, WNT-3A+Activin A and neat medium) / average decrease in the number of cells in G0/G1 (GDF8, WNT-3A, WNT-3A+Activin A and neat medium): six hours after the initiation of differentiation; for percentage of cells with EdU incorporation (mean of GDF8, WNT-3A, WNT-3A+Activin A and neat medium): SD ±1.2; for average decrease in the number of cells in G0/G1 (GDF8, WNT-3A, WNT-3A+Activin A and neat medium): Standard Deviation ±5%
# Experimental: (§1) Clusters from pluripotent human embryonic stem cell line H1 (NIH code: WA01) were seeded at 0.5×10^6 cells/ml in Erlenmeyer shaker flasks in MCDB-131 medium containing […] sodium bicarbonate and 5.5 mM glucose (Catalog #A13051 DJ, Invitrogen, CA), which was supplemented with 2% fatty acid free BSA (Catalog #68700, Proliant, Iowa), 1× GlutaMAX™ (Catalog #35050-079, Invitrogen, CA), an additional 2.5 mM glucose (Catalog #G8769, Sigma) and ITS-X at 1:50,000 stock concentration (Catalog #51500056, Invitrogen, CA). MCDB-131 medium supplemented in this manner will be referred to as stage 1 basal medium or “Neat” medium for the purposes of this example. The GSK3B inhibitor, 14-Prop-2-en-1-yl-3,5,7,14,17,23,27-heptaazatetracyclo[19.3.1.1-2,6˜.1˜8,12˜]heptacosa-1(25),2(27),3,5,8(26),9,11,21,23-nonaen-16-one, U.S. patent application Ser. No. 12/494,789; incorporated herein by reference in its entirety will be referred to as “MCX”.
# (§2) Clusters were treated on the first day of differentiation with one of six conditions: (1) Neat, (2) 3 μM MCX plus 100 ng/ml GDF-8 (Catalog #120-00, Peprotech), (3) 3 μM MCX only, (4) 100 ng/ml GDF-8 only, (5) 20 ng/ml WNT-3A (Catalog #1324-WN-002, R&D Systems, MN) plus 100 ng/ml Activin A (Catalog #338-AC, R&D Systems, MN), or (6) 20 ng/ml WNT-3A only.
# (§3) Media in each of the conditions was changed at 24 and 48 hours after the initiation of differentiation. At these times, cells in conditions 1, 2, 3, and 4 were changed to fresh stage 1 basal media supplemented with 100 ng/ml GDF8 while cells in conditions 5 and 6 were changed to fresh stage 1 basal media supplemented with 100 ng/ml Activin A.
# One hour prior to initiation of differentiation, and 5, 23, 29, 47, or 71 hours after the initiation of differentiation (referred to as “Time 0”), suspension samples were transferred to a non-tissue culture treated six well dish and incubated with EdU (Click-iT® EdU Kit, Life Technologies Corporation, Carlsbad, Calif.) for one hour. The EdU incubated cells were then assessed by flow cytometry at times 0, 6, 24, 30, 48, or 72 hours after initiation of differentiation to measure the percentage of cells in G0/G1, S, or G2/M stages of the cell cycle (FIGS. 81-87).
# [2] = tested on: Clusters from pluripotent human embryonic stem cell line H1 (NIH code: WA01); assay: Efficiency of definitive endoderm generation: percentage of cells expressing CXCR4 (CD184), CD99 and CD9 by flow cytometry after 3 days of differentiation in suspension culture; settings: for CD9 (% by FACS) / CD99 (% by FACS) / CD184 (% by FACS): end of day three
# Experimental: Clusters from pluripotent human embryonic stem cell line H1 (NIH code: […] MCDB-131 medium supplemented in this manner will be referred to as “stage 1 basal medium” for the purposes of this application. […] No. 12/494,789; incorporated herein by reference in its entirety) and 100 ng/ml GDF-8 (Catalog #120-00, Peprotech), or 3 μM MCX only, or 20 ng/ml WNT-3A (Catalog #1324-WN-002, R&D Systems, MN) plus 100 ng/ml Activin A (Catalog #338-AC, R&D Systems, MN) or 20 ng/ml WNT-3A only. On day two, cells were transferred to fresh stage 1 basal media supplemented with either 100 ng/ml GDF8 or 100 ng/ml Activin A. Samples were collected for flow cytometry, PCR and Western Blot analysis at various time points ranging from time zero (immediately before addition of basal media plus supplements) up to 72 hours after beginning differentiation. The efficiency with which definitive endoderm was generated was determined after 3 days of differentiation under each condition by measuring the percentage of cells expressing the cells surface markers CXCR4, CD99 and CD9 using flow cytometry. […] Clusters from pluripotent human embryonic stem cell line H1 (NIH code: WA01) were seeded at cell densities ranging from 0.25×10^6 to 2×10^6 cells/ml in Erlenmeyer/shaker flasks or spinner flasks in stage 1 basal media as described in Example 9. Clusters were treated with stage 1 basal medium containing 1.5, 2, 3, or 4 μM MCX on day one of differentiation and with fresh stage 1 basal medium containing 100 ng/ml GDF-8 on day 2. No media exchange was performed on day three. Samples were collected for flow cytometry and PCR analysis at the end of day three of differentiation. The efficiency with which definitive endoderm was generated was then determined by measuring the percentage of cells expressing the cells surface markers CXCR4, CD99 and CD9 using flow cytometry. […] However, by increasing BSA concentrations, the effects of MCX can be modulated such that concentrations≥4 micromolar may be used. Conversely, concentrations≤1.5 micromolar may be used to generate definitive endoderm when used with lower BSA concentrations. The example was carried out to determine whether GlutaMAX™ supplementation was required for generation of definitive endoderm by suspending clusters in stage 1 basal media (described in Example 9) plus or minus GlutaMAX™, which was supplemented with 3 μM MCX on day one of differentiation and with fresh stage 1 basal medium containing 100 ng/ml GDF-8 on day 2. No media exchange was performed on day three. Samples were collected for flow cytometry and PCR analysis at the end of day three of differentiation. The efficiency with which definitive endoderm was generated was determined under each condition by measuring the percentage of cells expressing the cells surface markers CXCR4, CD99 and CD9 using flow cytometry. Clusters from pluripotent human embryonic stem cell line H1 (NIH code: […] Clusters were treated with stage 1 basal medium containing MCX and GDF-8 as described in Example 12. Samples were collected for flow cytometry at the end of day three of differentiation. Phase contrast images were also captured on each day of differentiation. The efficiency with which definitive endoderm was generated was then determined by measuring the percentage of cells expressing the cells surface markers CXCR4, CD99 and CD9 using flow cytometry. The data is shown in FACS plots in FIGS. 44 A&B and summarized in Table 17. […] In addition, it was observed that differences in bicarbonate levels correlated with differences in cluster morphologies at the end of stage 1, as observed by phase contrast microscopy (FIGS. 44 C&D). Also, cells differentiated under high bicarbonate levels were noted to form looser clusters than cells differentiated in 2.43 g/L of bicarbonate.
# [3] = tested on: Clusters from pluripotent human embryonic stem cell line H1 (NIH code: WA01); assay: Cell viability of clusters treated with MCX in suspension culture; settings: MCX at concentrations above 4 μM
# Experimental: Clusters from pluripotent human embryonic stem cell line H1 (NIH code: WA01) were seeded at cell densities ranging from 0.25×10^6 to 2×10^6 cells/ml in Erlenmeyer/shaker flasks or spinner flasks in stage 1 basal media as described in Example 9. Clusters were treated with stage 1 basal medium containing 1.5, 2, 3, or 4 μM MCX on day one of differentiation and with fresh stage 1 basal medium containing 100 ng/ml GDF-8 on day 2. No media exchange was performed on day three. Samples were collected for flow cytometry and PCR analysis at the end of day three of differentiation.
# The efficiency with which definitive endoderm was generated was then determined by measuring the percentage of cells expressing the cells surface markers CXCR4, CD99 and CD9 using flow cytometry. […] However, by increasing BSA concentrations, the effects of MCX can be modulated such that concentrations≥4 micromolar may be used. Conversely, concentrations≤1.5 micromolar may be used to generate definitive endoderm when used with lower BSA concentrations.
# [4] = tested on: Clusters from pluripotent human embryonic stem cell line H1 (NIH code: WA01); assay: qRT-PCR gene expression, fold versus undifferentiated cells, 0-72 hours of differentiation (Example 15)
# Experimental: as §1, §2, §3
# However, consistent with the differences in cell cycle observed through the process of forming definitive endoderm, intermediate differences in gene expression were seen. […] (FIGS. 88c and e).
# [5] = 2.43 g/L Sodium bicarbonate in modified stage 1 basal media, MCX and GDF-8
# [6] = 3.64 g/L Sodium bicarbonate in stage 1 basal media, MCX and GDF-8
# [7] = 1.5 μM MCX on day one, 100 ng/ml GDF-8 on day 2
# [8] = 2 μM MCX on day one, 100 ng/ml GDF-8 on day 2
# [9] = 3 μM MCX on day one, 100 ng/ml GDF-8 on day 2
# [10] = 4 μM MCX on day one, 100 ng/ml GDF-8 on day 2
# [11] = 6 hours following initiation of differentiation
molecule,measurement,setting,value
"GDF8: TGF-β family member, GDF8 (Catalog #120-00, Peprotech)",cells in G0/G1 of the cell cycle,[1],48.5%
same,"percentage of cells with EdU incorporation (mean of GDF8, WNT-3A, WNT-3A+Activin A and neat medium)",[1],48.1%
same,"average decrease in the number of cells in G0/G1 (GDF8, WNT-3A, WNT-3A+Activin A and neat medium)",[1],13%
O=C([O-])O.[Na+] [Sodium bicarbonate],CD9 (% by FACS),[2]; [5],12.3%
same,CD99 (% by FACS),[2]; [5],66.7%
same,"cells expressing CXCR4, on average",[2]; 2.43 g/L sodium bicarbonate,87.4%
same,CD9 (% by FACS),[2]; [6],5.5%
same,CD99 (% by FACS),[2]; [6],92.7%
same,"cells expressing CXCR4, on average",[2]; 3.64 g/L sodium bicarbonate,97.35%
"C=CCN1CC(=O)NCCCc2cncc(c2)-c2ncnc(n2)Nc2cccc(c2)C1 [MCX, 14-Prop-2-en-1-yl-3,5,7,14,17,23,27-heptaazatetracyclo[19.3.1.1˜2,6-˜0.1˜8,12.˜]heptacosa-1(25),2(27),3,5,8(26),9,11,21,23-non-aen-16-one]",CD9 (% by FACS),[2]; [7],68.4%
same,CD184 (% by FACS),[2]; [7],67.8%
same,CD9 (% by FACS),[2]; [8],0.2%
same,CD184 (% by FACS),[2]; [8],96.5%
same,definitive endoderm level versus 3 μM MCX plus 100 ng/ml GDF-8 or 20 ng/ml WNT-3A plus 100 ng/ml Activin A on day one,[2]; 3 μM MCX in the absence of a TGF-β family member on day one,comparable
same,CD9 (% by FACS),[2]; [9],0.2%
same,CD184 (% by FACS),[2]; [9],96.0%
same,CD9 (% by FACS),[2]; [10],1.0%
same,CD184 (% by FACS),[2]; [10],95.2%
same,"definitive endoderm positive cells (CXCR4 positive, CD9 positive)",[2]; MCX at concentrations less than 2 μM,progressively fewer definitive endoderm positive cells
same,effect on cell viability,[3],decreased cell viability
same,increase in G0/G1 cells,[1]; [11],54%
same,reduction in the incorporation of EdU compared to the other four treatment conditions,[1]; [11],~40%
same,"magnitude of induction of FGF4, FOXA2 and SOX17 compared to the other four conditions",[4]; 24 hours after the initiation of differentiation,much lower
same,expression of genes for pluripotency (NANOG and POU5F1/OCT4) versus starting cell population or other four conditions,[4]; by 24 hours,dramatically reduced
same,definitive endoderm by gene expression versus 20 ng/ml WNT-3A plus 100 ng/ml Activin A on day one,[4]; end of definitive endoderm formation,comparable
same,"induction of genes T (brachyury), GATA4 and CDX2 versus WNT-3A+Activin A or the other three conditions",[4]; first 24 hours of differentiation,substantially higher
B1,cells in G0/G1 of the cell cycle,[1],55.8%
same,"percentage of cells with EdU incorporation (mean of GDF8, WNT-3A, WNT-3A+Activin A and neat medium)",[1],48.1%
same,"average decrease in the number of cells in G0/G1 (GDF8, WNT-3A, WNT-3A+Activin A and neat medium)",[1],13%
